One data set has as its target T1, HDAC6(H574A) mutant (Danio rerio, UniProt F8W4B7, H574A).
T1 construct: Danio rerio HDAC6 (amino acids 440–798; zHDAC6); His (N, cleaved yes); MBP (N, cleaved yes); made in house; host or cells: RIPL Escherichia coli
T1 sequence (F8W4B7 440-798 H574A): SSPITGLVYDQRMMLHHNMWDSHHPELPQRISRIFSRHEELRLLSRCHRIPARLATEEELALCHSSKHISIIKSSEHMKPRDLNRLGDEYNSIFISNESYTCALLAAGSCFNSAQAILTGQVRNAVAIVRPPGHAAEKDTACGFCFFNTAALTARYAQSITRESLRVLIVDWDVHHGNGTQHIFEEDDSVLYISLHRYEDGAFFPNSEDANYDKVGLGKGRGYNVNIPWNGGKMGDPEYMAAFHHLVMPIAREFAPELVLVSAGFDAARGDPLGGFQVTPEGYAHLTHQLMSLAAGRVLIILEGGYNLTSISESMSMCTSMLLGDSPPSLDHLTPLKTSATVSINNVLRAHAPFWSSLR
As to the kind of experiment: Inhibitor hydrolysis in vitro by HDAC6(H574A) mutant (LC-MS/MS). It is filed as biochemical. The note with it: 20 μM compound, 2 μM enzyme, 30 °C. The method, then: The zHDAC6 mutants (Y745F and H574A) were constructed using the Quick-change site-directed mutagenesis protocol with the pEC566-zHDAC6 expression plasmid as a template. Both mutants were expressed and purified as described above for wild-type zHDAC6 (Figure S2).
(§1) Mass spectrometry quantification of inhibitors/reaction products was carried out with a Shimadzu LCMS-8040 instrument (Shimadzu, HPLC Prominence system). Analytes were separated on a Kinetex XB-C18 2.6 μm, 100 Å column (50 × 2.1 mm; Phenomenex) in a linear 15–60% CH3CN/H2O gradient containing 0.1% formic acid at a flow rate of 0.8 mL min^–1 over 4 min. Multiple reaction monitoring (MRM) parameters were optimized for each analyte, and corresponding major CID fragments were used for quantification. Analytes were quantified using corresponding calibration curves generated from pure compounds dissolved in water.
[…] […] Four microliter aliquots of reaction mixtures were injected into the system directly from the 96-well plate, and inhibitors/reaction products were quantitated as described above.

The nature of data set [1]: Control reaction without the enzyme (assay buffer, LC-MS/MS). It is filed as physicochemical. The note with it: 20 μM 8, assay buffer pH 7.4, 30 °C. The method, then:
as §1
Twenty micromolar solutions of compounds were mixed with 1 μM zHDAC6 in a 96-well plate in an assay buffer comprising 50 mM HEPES, 140 mM NaCl, and 10 mM KCl at pH 7.4. […] Four microliter aliquots of reaction mixtures were injected into the system directly from the 96-well plate, and inhibitors/reaction products were quantitated as described above.

In the case of `CS(=O)(=O)N(Cc1ccc(-c2nnc(C(F)F)o2)cn1)c1cccc(Cl)c1` [compound 8], the “hydrolysis by the HDAC6(H574A) mutant” value at HDAC6(H574A) mutant was “no hydrolysis was observed”. In addition, the “hydrolysis in the control reaction without the enzyme” value in data set [1] was “no hydrolysis was observed”.
